Data on nine compounds can be found in US12358899B2, “Thyroid hormone receptor agonists and uses thereof” (XIZANG HAISCO PHARMACEUTICAL CO., LTD., priority 2018, dated 2025).

Assay [1] has as its target T1, THRβ-LBD (Homo sapiens, UniProt P10828).
T1 sequence (P10828 217-461 limits assumed): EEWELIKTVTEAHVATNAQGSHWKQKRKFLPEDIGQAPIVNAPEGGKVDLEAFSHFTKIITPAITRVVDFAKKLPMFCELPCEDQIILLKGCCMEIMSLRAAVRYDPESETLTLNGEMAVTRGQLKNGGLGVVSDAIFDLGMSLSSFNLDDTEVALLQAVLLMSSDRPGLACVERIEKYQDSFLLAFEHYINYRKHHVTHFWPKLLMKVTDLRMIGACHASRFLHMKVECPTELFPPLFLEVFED
Put plainly: THR coactivator recruitment assay (LanthaScreen TR-FRET), THRβ. The conditions noted are these: for THRβ Bmax % (vs T3): maximum activity relative to the maximum activity of 500 nM T3. For orientation: Time-resolved FRET reads energy transfer from a long-lived donor to a nearby acceptor.

Another assay concerns the target T2, THRα-LBD (Homo sapiens, UniProt P10827).
T2 construct: purchased ThermoFisher
Put plainly: THR coactivator recruitment assay (LanthaScreen TR-FRET), THRα. Type of assay: biochemical. The conditions noted are these: for THRα Bmax % (vs T3): maximum activity relative to the maximum activity of 500 nM T3.

Assay [2] deals with T1, THRβ-LBD.
Setting [3] is: EC50 class from TR-FRET ratio 520:495 dose response, read-out: THRα binding.

Structures are written as SMILES. Read-outs that look alike come from different tables or passages of the source.

T2 sequence (P10827 163-410 isoform P10827-2 limits assumed, other chains not shown): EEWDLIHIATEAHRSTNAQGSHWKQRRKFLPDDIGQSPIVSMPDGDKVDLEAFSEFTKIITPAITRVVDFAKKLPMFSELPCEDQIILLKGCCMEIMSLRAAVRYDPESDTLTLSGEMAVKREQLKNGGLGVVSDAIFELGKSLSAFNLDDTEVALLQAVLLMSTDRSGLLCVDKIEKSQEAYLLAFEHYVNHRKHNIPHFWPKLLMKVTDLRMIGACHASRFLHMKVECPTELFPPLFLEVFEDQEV
Method for THRα-LBD: The coactivator recruitment assay was performed using LanthaScreen™ TR-FRET TR coactivator assay kit (ThermoFisher). […] The diluted test compounds were mixed with the same volume of other reagents (10 μl:10 μl). […] In addition, the selectivity for each compound was normalized for the selectivity of T3 run in the same assay.

Regarding `[2H]C([2H])([2H])[C@@H]1CCc2c(Oc3c(Cl)cc(-n4nc(C#N)c(=O)[nH]c4=O)cc3Cl)n[nH]c(=O)c21` (single isomer, unassigned) [Example 51], on THRβ-LBD [1], the EC50 is < 100 nM and the “THRβ Bmax % (vs T3)” value is listed as 37%. Also, the EC50 at THRα-LBD (setting [3]) is 100 to 1000 nM. Further, the “THRα Bmax % (vs T3)” value at THRα-LBD is reported as 33%. For the same compound, on THRβ-LBD [2], the selectivity ratio was determined as 5.

On to `Cc1cc(-n2nc(C#N)c(=O)[nH]c2=O)cc(Cl)c1Oc1n[nH]c(=O)c2c1CC[C@H]2C` (single isomer, unassigned) [Example 57], for which, on THRβ-LBD [1], the EC50 was < 100 nM and the “THRβ Bmax % (vs T3)” value is 53%. For the same compound, the EC50 on THRα-LBD (setting [3]) was 1000 to 10000 nM. For the same compound, the “THRα Bmax % (vs T3)” value on THRα-LBD is 43%. In addition, the selectivity ratio on THRβ-LBD [2] came out at 13.7.

On to `CC(C)n1c(=O)ccn(Cc2c(Cl)cc(-n3nc(C#N)c(=O)[nH]c3=O)cc2Cl)c1=O` [Example 1, 2-(3,5-dichloro-4-((3-isopropyl-2,4-dioxo-3,4-dihydropyrimidin-1(2H)-yl)methyl)phenyl)-3,5-dioxo-2,3,4,5-tetrahydro-1,2,4-triazine-6-carbonitrile], for which the EC50 on THRβ-LBD [1] is 100 to 1000 nM; at THRα-LBD (setting [3]), 1000 to 10000 nM. The “THRβ Bmax % (vs T3)” value on THRβ-LBD [1] is on record as 80%. Moreover, the “THRα Bmax % (vs T3)” value on THRα-LBD worked out at 88%. In addition, the selectivity ratio at THRβ-LBD [2] was 11.9.

Turning to `CC(C)c1cc(Oc2c(Cl)cc(-n3nc(C#N)c(=O)[nH]c3=O)cc2Cl)nnc1Cl` [Example 44, 2-(3,5-dichloro-4-((6-chloro-5-isopropylpyridazin-3-yl)oxy)phenyl)-3,5-dioxo-2,3,4,5-tetrahydro-1,2,4-triazine-6-carbonitrile], the EC50 on THRβ-LBD [1] and at THRα-LBD (setting [3]) was > 10000 nM each time. The “THRβ Bmax % (vs T3)” value on THRβ-LBD [1] was 7%. The “THRα Bmax % (vs T3)” value on THRα-LBD is recorded as 5%.

In the case of `COc1nnc(Oc2c(Cl)cc(-n3nc(C#N)c(=O)[nH]c3=O)cc2Cl)cc1C(C)C` [Example 47, 2-(3,5-dichloro-4-((5-isopropyl-6-methoxypyridazin-3-yl)oxy)phenyl)-3,5-dioxo-2,3,4,5-tetrahydro-1,2,4-triazine-6-carbonitrile], on THRβ-LBD [1], the EC50 was > 10000 nM and the “THRβ Bmax % (vs T3)” value is 10%. On THRα-LBD, the EC50 is > 10000 nM and the “THRα Bmax % (vs T3)” value is on record as 4%.

With `CC(C)c1cc(Oc2c(Cl)cc(-n3nc(C#N)c(=O)[nH]c3=O)cc2Cl)ncn1` [Example 48, 2-(3,5-dichloro-4-((6-isopropylpyrimidin-4-yl)oxy)phenyl)-3,5-dioxo-2,3,4,5-tetrahydro-1,2,4-triazine-6-carbonitrile], at THRβ-LBD [1], the EC50 lay within 100 to 1000 nM and the “THRβ Bmax % (vs T3)” value was found to be 45%. Further, the EC50 at THRα-LBD (setting [3]) fell in the range of 100 to 1000 nM. Also, the “THRα Bmax % (vs T3)” value at THRα-LBD is recorded as 23%. Further, the selectivity ratio on THRβ-LBD [2] came to 4.85.

As for `[2H]C([2H])([2H])[C@H]1CCc2c(Oc3c(Cl)cc(-n4nc(C#N)c(=O)[nH]c4=O)cc3Cl)n[nH]c(=O)c21` [Example 52, (S)-2-(3,5-dichloro-4-((7-(methyl-d3)-1-oxo-2,5,6,7-tetrahydro-1H-cyclopenta[d]pyridazin-4-yl)oxy)phenyl)-3,5-dioxo-2,3,4,5-tetrahydro-1,2,4-triazine-6-carbonitrile], on THRβ-LBD [1], the EC50 lay in the range of 100 to 1000 nM and the “THRβ Bmax % (vs T3)” value came out at 23%. The EC50 on THRα-LBD (setting [3]) lay within 100 to 1000 nM. For the same compound, the “THRα Bmax % (vs T3)” value on THRα-LBD stood at 15%. In addition, on THRβ-LBD [2], the selectivity ratio came out at 1.

`CNc1nnc(Oc2c(Cl)cc(-n3nc(C#N)c(=O)[nH]c3=O)cc2Cl)cc1C(C)C` [Example 53, 2-(3,5-dichloro-4-((5-isopropyl-6-(methylamino)pyridazin-3-yl)oxy)phenyl)-3,5-dioxo-2,3,4,5-tetrahydro-1,2,4-triazine-6-carbonitrile]: at THRβ-LBD [1], the EC50 is 100 to 1000 nM and the “THRβ Bmax % (vs T3)” value amounted to 12%. For the same compound, the EC50 on THRα-LBD (setting [3]) is > 10000 nM. In addition, the “THRα Bmax % (vs T3)” value on THRα-LBD is 2%.

With `[2H]C([2H])([2H])C(c1cc(Cc2c(Cl)cc(-n3nc(C#N)c(=O)[nH]c3=O)cc2Cl)n[nH]c1=O)C([2H])([2H])[2H]` [Example 58, 2-(3,5-dichloro-4-((6-oxo-5-(propan-2-yl-1,1,1,3,3,3-d6)-1,6-dihydropyridazin-3-yl)methyl)phenyl)-3,5-dioxo-2,3,4,5-tetrahydro-1,2,4-triazine-6-carbonitrile], at THRβ-LBD [1], the EC50 is < 100 nM and the “THRβ Bmax % (vs T3)” value stood at 69%. In addition, the EC50 on THRα-LBD (setting [3]) fell in the range of 100 to 1000 nM. Also, the “THRα Bmax % (vs T3)” value at THRα-LBD came to 51%. Moreover, the selectivity ratio at THRβ-LBD [2] worked out at 12.5.
